Structures can show the parent of a compound that is named as a salt.
Tests used:
[1] = biological target: PI3Kγ (p110γ) Recombinant Human Protein (Homo sapiens (Human), UniProt P48736); experiment: PI3K-γ Scintillation Proximity Assay; format: biochemical; conditions: 20 μM PIP2, 2 μM ATP, 13 nM PI3Kγ, 120 min, room temperature
Text: Example B. PI3K-γ Scintillation Proximity Assay
(§1) [γ-^33P]ATP (10 mCi/mL) and Wheat Germ Agglutinin (WGA) YSi SPA Scintillation Beads was purchased from Perkin-Elmer (Waltham, Mass.). Lipid kinase substrate, D-myo-Phosphatidylinositol 4,5-bisphosphate (PtdIns(4,5)P2)D (+)-sn-1,2-di-O-octanoylglyceryl, 3-O-phospho linked (PIP2), CAS 204858-53-7, was purchased from Echelon Biosciences (Salt Lake City, Utah). PI3Kγ (p110γ) Recombinant Human Protein was purchased from Life technology (Grand island, NY), ATP, MgCl2, DTT, EDTA, MOPS and CHAPS were purchased from Sigma-Aldrich (St. Louis, Mo.).
(§2) The kinase reaction was conducted in polystyrene 384-well Greiner Bio-one white plate from Thermo Fisher Scientific in a final volume of 25 μL. Inhibitors were first diluted serially in DMSO and added to the plate wells before the addition of other reaction components. The final concentration of DMSO in the assay was 2%. The PI3Kγ assay was carried out at room temperature in 20 mM MOPS, pH 6.7, 10 mM MgCl2, 5 mM DTT and CHAPS 0.03%. Reactions were initiated by the addition of ATP, the final reaction mixture consisted of 20 μM PIP2, 2 μM ATP, 0.5 μCi [γ-^33P] ATP, 13 nM PI3Kγ. Reactions were incubated for 120 min and terminated by the addition of 40 μL SPA beads suspended in quench buffer: 163 mM potassium phosphate pH 7.8, 20% glycerol, 25 mM EDTA. The final concentration of SPA beads is 1.0 mg/mL. After the plate sealing, plates were shaken overnight at room temperature and centrifuged at 1500 rpm for 10 min, the radioactivity of the product was determined by scintillation counting on Topcount (Perkin-Elmer). IC50 determination was performed by fitting the curve of percent of the solvent control activity versus the log of the inhibitor concentration using the GraphPad Prism 6.0 software.

[2] = biological target: PI3Kδ (p110δ/p85α) Recombinant Human Protein (Homo sapiens (Human), UniProt O00329); experiment: PI3Kδ Scintillation Proximity Assay; format: biochemical; conditions: 20 μM PIP2, 2 μM ATP, 3.4 nM PI3Kδ, 120 min, room temperature
Text: Example C. PI3Kδ Scintillation Proximity Assay
as §1, with “PI3Kδ (p110δ/p85α)” for “PI3Kγ (p110γ)”, “Eurofins (St Charles, Mo.).” for “Life technology (Grand island, NY),”
as §2, with “PI3Kδ” for “PI3Kγ”, “3.4” for “13”, “PI3Kδ.” for “PI3Kγ.”

[3] = test system: Phosphorylated Ribosomal Protein S6 (RPS6) in THP-1 cells; experiment: THP-1 RPS6 ELISA Assay; format: cell-based; conditions: Homo sapiens; serum starved THP-1 cells, 2 hours with compound, 10 nM MCP-1 for 15 minutes, Phospho-RPS6 ELISA; read-out: PI3Kγ_THP1_RPS6_ELISA IC50
Experimental: Example A. THP-1 RPS6 ELISA Assay
To measure the Phosphorylated Ribosomal Protein S6 (RPS6) in cell lysates, THP-1 cells (Human Acute Monocytic Leukemia) are purchased from ATCC (Manassas, Va.) and maintained in RPMI with 10% FBS (Gibco/Life Technologies, Carlsbad, Calif.). For the assay, THP-1 cells are serum starved overnight in RPMI, then plated in RPMI (2×10^5 cells/well in 90 μL) into 96-well flat-bottom tissue culture treated plates (Corning, Corning, N.Y.), in the presence or absence of a concentration range of test compounds. Covered plates are incubated for 2 hours at 37° C., 5% CO2 then treated with or without 10 nM MCP-1 (MYBioSource, San Diego, Calif.) for 15 minutes at 37° C., 5% CO2. Plates are centrifuged at 1600 RPM and supernatants are removed. Cells are lysed in Lysis Buffer (Cell Signaling, Danvers, Mass.) with Protease Inhibitor (Calbiochem/EMD, Germany), PMSF (Sigma, St Louis Mo.), HALTS (Thermo Fisher, Rockford, Ill.) for 30 min on wet ice. Cell lysates are frozen at −80° C. before testing. The lysates are tested in the Human/Mouse/Rat Phospho-RPS6 ELISA (R&D Systems, Inc. Minn, Minn.). The plate is measured using a microplate reader (SpectraMax M5—Molecular Devices, LLC Sunnyvale, Calif.) set to 450 nm with a wavelength correction of 540. IC50 determination is performed by fitting the curve of inhibitor percent inhibition versus the log of the inhibitor concentration using the GraphPad Prism 5.0 software.

Chain of PI3Kδ (p110δ/p85α) Recombinant Human Protein (O00329 whole entry): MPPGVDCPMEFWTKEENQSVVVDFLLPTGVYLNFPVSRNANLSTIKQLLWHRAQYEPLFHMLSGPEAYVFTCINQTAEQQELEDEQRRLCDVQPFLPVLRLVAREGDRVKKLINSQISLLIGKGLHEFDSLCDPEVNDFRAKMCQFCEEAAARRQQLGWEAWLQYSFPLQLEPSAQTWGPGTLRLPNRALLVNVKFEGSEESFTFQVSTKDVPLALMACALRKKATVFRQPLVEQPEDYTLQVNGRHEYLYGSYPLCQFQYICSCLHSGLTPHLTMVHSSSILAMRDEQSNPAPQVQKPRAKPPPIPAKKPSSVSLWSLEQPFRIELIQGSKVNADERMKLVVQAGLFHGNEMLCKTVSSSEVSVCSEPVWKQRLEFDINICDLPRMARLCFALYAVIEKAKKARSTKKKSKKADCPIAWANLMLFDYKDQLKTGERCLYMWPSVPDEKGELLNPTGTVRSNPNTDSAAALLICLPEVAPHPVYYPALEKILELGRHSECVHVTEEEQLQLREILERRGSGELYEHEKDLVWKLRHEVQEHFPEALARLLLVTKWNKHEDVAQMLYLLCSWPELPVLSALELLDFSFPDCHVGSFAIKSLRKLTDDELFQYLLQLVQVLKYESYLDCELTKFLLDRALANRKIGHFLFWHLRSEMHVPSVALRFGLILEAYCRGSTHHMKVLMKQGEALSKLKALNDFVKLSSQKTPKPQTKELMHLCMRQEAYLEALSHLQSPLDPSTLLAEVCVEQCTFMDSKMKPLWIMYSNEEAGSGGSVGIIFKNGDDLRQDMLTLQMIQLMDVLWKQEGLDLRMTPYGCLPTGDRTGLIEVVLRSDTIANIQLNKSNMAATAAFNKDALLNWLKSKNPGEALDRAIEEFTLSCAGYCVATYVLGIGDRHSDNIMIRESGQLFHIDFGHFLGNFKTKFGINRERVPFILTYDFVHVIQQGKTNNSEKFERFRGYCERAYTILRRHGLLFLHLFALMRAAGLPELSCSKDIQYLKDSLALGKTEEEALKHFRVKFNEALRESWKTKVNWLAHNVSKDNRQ
Chain of PI3Kδ (p110δ/p85α) Recombinant Human Protein (P27986 whole entry partner): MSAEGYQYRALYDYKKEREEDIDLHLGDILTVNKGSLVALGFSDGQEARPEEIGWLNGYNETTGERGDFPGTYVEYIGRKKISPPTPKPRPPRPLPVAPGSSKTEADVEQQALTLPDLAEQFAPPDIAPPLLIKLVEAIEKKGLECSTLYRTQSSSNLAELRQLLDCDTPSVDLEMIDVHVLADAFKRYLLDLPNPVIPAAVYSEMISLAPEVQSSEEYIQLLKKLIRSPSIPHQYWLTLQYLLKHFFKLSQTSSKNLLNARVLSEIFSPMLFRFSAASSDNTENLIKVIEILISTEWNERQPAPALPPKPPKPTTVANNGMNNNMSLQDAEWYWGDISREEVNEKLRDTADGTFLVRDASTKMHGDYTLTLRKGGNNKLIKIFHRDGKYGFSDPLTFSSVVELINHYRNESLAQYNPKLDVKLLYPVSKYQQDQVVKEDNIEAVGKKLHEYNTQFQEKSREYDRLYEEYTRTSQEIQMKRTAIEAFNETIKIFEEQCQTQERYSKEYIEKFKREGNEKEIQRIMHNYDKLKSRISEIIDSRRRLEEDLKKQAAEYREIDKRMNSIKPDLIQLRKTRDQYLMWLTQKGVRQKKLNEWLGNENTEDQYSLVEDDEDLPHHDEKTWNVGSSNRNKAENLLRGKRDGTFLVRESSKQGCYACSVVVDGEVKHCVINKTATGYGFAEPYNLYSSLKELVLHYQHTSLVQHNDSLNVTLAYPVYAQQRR
Chain of PI3Kγ (p110γ) Recombinant Human Protein (P48736 whole entry): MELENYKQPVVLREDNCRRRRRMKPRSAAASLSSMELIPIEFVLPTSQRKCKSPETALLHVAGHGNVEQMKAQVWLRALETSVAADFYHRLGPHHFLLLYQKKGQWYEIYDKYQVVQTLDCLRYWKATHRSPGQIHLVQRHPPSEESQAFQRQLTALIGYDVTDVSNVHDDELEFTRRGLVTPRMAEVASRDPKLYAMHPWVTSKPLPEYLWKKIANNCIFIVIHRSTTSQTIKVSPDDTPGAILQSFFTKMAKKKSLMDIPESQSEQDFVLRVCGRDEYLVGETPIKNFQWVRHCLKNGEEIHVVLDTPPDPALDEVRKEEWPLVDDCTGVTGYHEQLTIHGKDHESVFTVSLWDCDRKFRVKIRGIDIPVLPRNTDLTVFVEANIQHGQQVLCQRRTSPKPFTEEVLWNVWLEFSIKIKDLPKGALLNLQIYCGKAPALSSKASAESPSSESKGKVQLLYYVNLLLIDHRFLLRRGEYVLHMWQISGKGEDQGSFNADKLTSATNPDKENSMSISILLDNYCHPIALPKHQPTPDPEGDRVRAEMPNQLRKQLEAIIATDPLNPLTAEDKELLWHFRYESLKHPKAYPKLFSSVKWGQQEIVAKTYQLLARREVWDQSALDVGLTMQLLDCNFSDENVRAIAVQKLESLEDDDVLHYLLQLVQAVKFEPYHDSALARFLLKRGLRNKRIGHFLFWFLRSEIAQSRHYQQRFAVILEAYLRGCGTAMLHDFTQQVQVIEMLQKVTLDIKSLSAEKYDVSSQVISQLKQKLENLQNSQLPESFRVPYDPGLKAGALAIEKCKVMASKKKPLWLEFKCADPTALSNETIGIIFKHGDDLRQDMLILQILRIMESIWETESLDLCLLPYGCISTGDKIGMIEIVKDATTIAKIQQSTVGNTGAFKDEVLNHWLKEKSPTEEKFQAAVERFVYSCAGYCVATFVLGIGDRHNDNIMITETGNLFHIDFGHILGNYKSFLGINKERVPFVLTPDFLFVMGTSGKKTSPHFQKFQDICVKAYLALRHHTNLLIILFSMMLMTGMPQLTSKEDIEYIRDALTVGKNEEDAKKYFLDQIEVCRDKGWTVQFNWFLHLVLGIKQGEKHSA

Row | SMILES | IC50 [1] | IC50 [2] | IC50 [3]
1 | Cc1ncc(-c2nc(-c3cc(S(=O)(=O)NC45CC(C#N)(C4)C5)ccc3C)cnc2N)s1 [Example 1, 3-(5-Amino-6-(2-methylthiazol-5-yl)pyrazin-2-yl)-N-(3-cyanobicyclo[1.1.1]pentan-1-yl)-4-methylbenzenesulfonamide Trifluoroacetate Salt] | ≤ 100 nM | ≤ 100 nM | ≤ 100 nM
2 | Cc1ncc(-c2nc(-c3cc(S(=O)(=O)NC45CCC(C#N)(C4)C5)ccc3C)cnc2N)s1 [Example 2, 3-(5-Amino-6-(2-methylthiazol-5-yl)pyrazin-2-yl)-N-(4-cyanobicyclo[2.1.1]hexan-1-yl)-4-methylbenzenesulfonamide trifluoroacetate salt] | ≤ 100 nM | ≤ 100 nM | ≤ 100 nM
3 | Cc1ncc(-c2nc(-c3cc(S(=O)(=O)NC45CC(CO)(C4)C5)ccc3C)cnc2N)s1 [Example 3, 3-(5-Amino-6-(2-methylthiazol-5-yl)pyrazin-2-yl)-N-(3-(hydroxymethyl)bicyclo[1.1.1]pentan-1-yl)-4-methylbenzenesulfonamide trifluoroacetate salt] | ≤ 100 nM | ≤ 100 nM | ≤ 100 nM
4 | Cc1ncc(-c2nc(-c3cc(S(=O)(=O)NC45COC(CO)(C4)C5)ccc3C)cnc2N)s1 [Example 4, 3-(5-Amino-6-(2-methylthiazol-5-yl)pyrazin-2-yl)-N-(1-(hydroxymethyl)-2-oxabicyclo[2.1.1]hexan-4-yl)-4-methylbenzenesulfonamide trifluoroacetate salt] | ≤ 100 nM | ≤ 100 nM | ≤ 100 nM
5 | Cc1ncc(-c2nc(-c3cc(S(=O)(=O)NC45CCC(CO)(C4)C5)ccc3C)cnc2N)s1 [Example 5, 3-(5-Amino-6-(2-methylthiazol-5-yl)pyrazin-2-yl)-N-(4-(hydroxymethyl)bicyclo[2.1.1]hexan-1-yl)-4-methylbenzenesulfonamide trifluoroacetate salt] | ≤ 100 nM | ≤ 100 nM | ≤ 100 nM
6 | Cc1ncc(-c2nc(-c3cc(S(=O)(=O)NC45CCC(CO)(CC4)OC5)ccc3C)cnc2N)s1 [Example 6, 3-(5-Amino-6-(2-methylthiazol-5-yl)pyrazin-2-yl)-N-(1-(hydroxymethyl)-2-oxabicyclo[2.2.2]octan-4-yl)-4-methylbenzenesulfonamide trifluoroacetate salt] | ≤ 100 nM | ≤ 100 nM | ≤ 100 nM
7 | Cc1ncc(-c2nc(-c3cc(S(=O)(=O)NC45CCC(O)(CC4)C5)ccc3C)cnc2N)s1 [Example 7, 3-(5-Amino-6-(2-methylthiazol-5-yl)pyrazin-2-yl)-N-(4-hydroxybicyclo[2.2.1]heptan-1-yl)-4-methylbenzenesulfonamide trifluoroacetate salt] | ≤ 100 nM | ≤ 100 nM | ≤ 100 nM
8 | Cc1ncc(-c2nc(-c3cc(S(=O)(=O)NC45COC(C(C)O)(C4)C5)ccc3C)cnc2N)s1 (stereo not shown) [Example 8, 3-(5-Amino-6-(2-methylthiazol-5-yl)pyrazin-2-yl)-N-(1-(1-hydroxyethyl)-2-oxabicyclo[2.1.1]hexan-4-yl)-4-methylbenzenesulfonamide trifluoroacetate salt] | ≤ 100 nM | ≤ 100 nM | ≤ 100 nM
9 | Cc1ncc(-c2nc(-c3cc(S(=O)(=O)NC45COC(CO)(C4)C5)cc(F)c3C)cnc2N)s1 [Example 9, 3-(5-Amino-6-(2-methylthiazol-5-yl)pyrazin-2-yl)-5-fluoro-N-(1-(hydroxymethyl)-2-oxabicyclo[2.1.1]hexan-4-yl)-4-methylbenzenesulfonamide trifluoroacetate Salt] | ≤ 100 nM | ≤ 100 nM | ≤ 100 nM
10 | Cc1ccc(S(=O)(=O)NC23CC(C#N)(C2)C3)cc1-c1cnc(N)c(-c2cn(C)nc2C)n1 [Example 10, 3-(5-Amino-6-(1,3-dimethyl-1H-pyrazol-4-yl)pyrazin-2-yl)-N-(3-cyanobicyclo[1.1.1]pentan-1-yl)-4-methylbenzenesulfonamide Trifluoroacetate Salt] | ≤ 100 nM | ≤ 100 nM | ≤ 500 nM
11 | Cc1ccc(S(=O)(=O)NC23CCC(C#N)(C2)C3)cc1-c1cnc(N)c(-c2cn(C)nc2C)n1 [Example 11, 3-(5-Amino-6-(1,3-dimethyl-1H-pyrazol-4-yl)pyrazin-2-yl)-N-(4-cyanobicyclo[2.1.1]hexan-1-yl)-4-methylbenzensulfonamide trifluoroacetate salt] | ≤ 100 nM | ≤ 500 nM | ≤ 500 nM
12 | Cc1ccc(S(=O)(=O)NC23COC(C)(C2)C3)cc1-c1cnc(N)c(-c2cn(C)nc2C)n1 [Example 12, 3-(5-Amino-6-(1,3-dimethyl-1H-pyrazol-4-yl)pyrazin-2-yl)-4-methyl-N-(1-methyl-2-oxabicyclo[2.1.1]hexan-4-yl)benzenesulfonamide trifluoroacetate salt] | ≤ 100 nM | ≤ 500 nM | ≤ 500 nM
13 | Cc1ccc(S(=O)(=O)NC23CCC(CO)(C2)C3)cc1-c1cnc(N)c(-c2cn(C)nc2C)n1 [Example 13, 3-(5-Amino-6-(1,3-dimethyl-1H-pyrazol-4-yl)pyrazin-2-yl)-N-(4-(hydroxymethyl)bicyclo[2.1.1]hexan-1-yl)-4-methylbenzenesulfonamide trifluoroacetate salt] | ≤ 100 nM | ≤ 500 nM | ≤ 500 nM
14 | [2H]C([2H])([2H])c1ccc(S(=O)(=O)NC23CCC(C#N)(C2)C3)cc1-c1cnc(N)c(-c2cncnc2)n1 [Example 64, 3-(5-Amino-6-(pyrimidin-5-yl)pyrazin-2-yl)-N-(4-cyanobicyclo[2.1.1]hexan-1-yl)-4-(methyl-d3)benzenesulfonamide trifluoroacetate salt] |  |  | ≤ 100 nM
